Where a SMILES comes first, the peptide text is derived from it.
What follows are compounds tested against HLA-B*0702 (Homo sapiens, UniProt P01889) (assay: In vitro class I HLA binding assay (fluorescence polarization competition)). Details: allele B*0702; fluorescence polarization competition; read-out: IC50 (nM), in vitro HLA binding affinity.
Description: A cell-free class I HLA binding assay that allows for in vitro quantification of peptide-HLA binding affinity in a competition format was used. In this assay, a fluorescently labeled, high binding, control peptide is loaded onto 384-well ½-area plates along with unlabeled experimental peptides. To remove endogenous peptides and render the HLA A and B molecules receptive to binding, HLA is heated at 53°C for 15 minutes and immediately added to the assay. The mixture is then allowed to stand for three days. […] Binding of experimental peptides is expressed as the percent inhibition of the labeled control peptide (experimental fluorescence / control fluorescence, multiplied by 100). The percent inhibition values for each experimental peptide (across a range of molar concentrations) are used to calculate the concentration which inhibits 50% of the labeled control peptide’s specific binding. This value is referred to as the peptide’s IC50.

SMILES | IC50 [nM]
CC[C@H](C)[C@H](NC(=O)[C@H](Cc1ccc(O)cc1)NC(=O)[C@@H]1CCCN1C(=O)[C@@H](N)CCCNC(=N)N)C(=O)N[C@@H](CO)C(=O)N[C@@H](CCCCN)C(=O)N[C@@H](CC(N)=O)C(=O)N[C@@H](CC(=O)O)C(=O)N[C@@H](CC(C)C)C(=O)O [CYRPA_229] (H-RPYISKNDL-OH) | 244
C[C@H](NC(=O)[C@@H](NC(=O)[C@@H](NC(=O)[C@H](CC(N)=O)NC(=O)CNC(=O)[C@H](Cc1ccc(O)cc1)NC(=O)[C@H](CCCCN)NC(=O)[C@H](CCC(=O)O)NC(=O)[C@@H]1CCCN1C(=O)[C@@H](N)CCCCN)[C@@H](C)O)[C@@H](C)O)C(=O)O [CYRPA_316] (H-KPEKYGNTTA-OH) | 836000
CC(C)C[C@H](NC(=O)[C@H](CC(=O)O)NC(=O)[C@H](CC(N)=O)NC(=O)[C@H](CCCCN)NC(=O)[C@H](CCCCN)NC(=O)[C@H](CCCCN)NC(=O)[C@H](CC(N)=O)NC(=O)[C@H](CO)NC(=O)[C@@H]1CCCN1C(=O)[C@@H](N)[C@@H](C)O)C(=O)O [RH5_286] (H-TPSNKKKNDL-OH) | 1880
CC[C@H](C)[C@H](N)C(=O)N[C@H](C(=O)N[C@@H](CO)C(=O)N[C@@H](CC(=O)O)C(=O)N[C@@H](Cc1c[nH]cn1)C(=O)N[C@@H](CC(C)C)C(=O)N[C@@H](CCCNC(=N)N)C(=O)N[C@@H](CCC(N)=O)C(=O)N[C@@H](CCSC)C(=O)O)[C@@H](C)O [RH5_470] (H-ITSDHLRQM-OH) | 183000
CSCC[C@H](NC(=O)[C@H](CCC(=O)O)NC(=O)[C@H](CC(N)=O)NC(=O)[C@H](CCC(=O)O)NC(=O)[C@H](CCC(N)=O)NC(=O)[C@H](CC(C)C)NC(=O)[C@H](CC(N)=O)NC(=O)[C@H](CC(C)C)NC(=O)[C@@H]1CCCN1C(=O)[C@@H](N)CO)C(=O)O [RIPR_0246] (H-SPLNLQENEM-OH) | 22400
CC(C)C[C@H](NC(=O)[C@@H](NC(=O)[C@H](CO)NC(=O)[C@H](CCC(=O)O)NC(=O)[C@H](CS)NC(=O)[C@H](CC(=O)O)NC(=O)[C@H](CC(N)=O)NC(=O)[C@@H]1CCCN1C(=O)[C@@H](N)CCCNC(=N)N)C(C)C)C(=O)O [RIPR_0676] (H-RPNDCESVL-OH) | 377
CC(C)C[C@H](NC(=O)[C@H](CC(N)=O)NC(=O)[C@H](CCC(=O)O)NC(=O)[C@H](CCCCN)NC(=O)[C@H](CS)NC(=O)[C@@H](NC(=O)[C@H](CS)NC(=O)[C@H](CCC(=O)O)NC(=O)[C@@H]1CCCN1C(=O)[C@@H](N)CCCCN)C(C)C)C(=O)O [RIPR_0836] (H-KPECVCKENL-OH) | 206000

The compounds below were run against HLA-DRB1*0701 (Homo sapiens, UniProt P01903+P01911, A100R/A102G/A103Q/D57E/D86V/E43K/F76Y/K127E/L162R/M171V/P40G/Q125H/Q99D/R33Q/R42Y/R54Q/S133A/S66F/T210M/V115G/Y107V/Y59L/Y89S) (assay: biochemical). Details: binding inhibition assay; NB = non-binder (no dose-dependent inhibition); read-out: DRB1*0701 IC50.
Format: binding
Method in brief: (§1)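 HLA-peptide complexes are captured with anti-HLA-DR antibody, and bound reference is quantified by europium-probe time-resolved fluorescence.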

SMILES | IC50 [nM]
CC[C@H](C)[C@H](NC(=O)[C@H](CCCCN)NC(=O)[C@H](CCCCN)NC(=O)[C@H](CCCCN)NC(=O)[C@H](CC(C)C)NC(=O)[C@H](Cc1ccc(O)cc1)NC(=O)[C@@H](NC(=O)[C@@H](NC(=O)[C@@H](NC(=O)[C@H](Cc1c[nH]cn1)NC(=O)[C@H](Cc1ccccc1)NC(=O)[C@@H](NC(=O)[C@H](CCC(=O)O)NC(=O)[C@H](CC(N)=O)NC(C)=O)[C@@H](C)CC)[C@@H](C)O)[C@@H](C)CC)[C@@H](C)CC)C(=O)NCC(=O)N[C@@H](CC(N)=O)C(=O)N[C@@H](CO)C(=O)N[C@H](C(=O)N[C@H](C(=O)N[C@@H](Cc1ccc(O)cc1)C(=O)N[C@@H](CC(=O)O)C(N)=O)[C@@H](C)CC)C(C)C [RIPR_019] (Ac-NEIFHTIIYLKKKIGNSVIYD-NH2) | 3860

These compounds were tested against HLA-DRB1*1301 (Homo sapiens, UniProt P01903+P01911, A100E/A169T/K41T/L162R/M171V/P40S/Q125H/Q178H/Q39Y/Q99D/R42S/S66N/T262R/W38E/Y61H) (assay: biochemical). Details: binding inhibition assay; NB = non-binder (no dose-dependent inhibition); read-out: DRB1*1301 IC50.
Format: binding
Method in brief: as §1

SMILES | IC50 [nM]
CC[C@H](C)[C@H](NC(=O)[C@H](CCCCN)NC(=O)[C@H](CCCCN)NC(=O)[C@H](CCCCN)NC(=O)[C@H](CC(C)C)NC(=O)[C@H](Cc1ccc(O)cc1)NC(=O)[C@@H](NC(=O)[C@@H](NC(=O)[C@@H](NC(=O)[C@H](Cc1c[nH]cn1)NC(=O)[C@H](Cc1ccccc1)NC(=O)[C@@H](NC(=O)[C@H](CCC(=O)O)NC(=O)[C@H](CC(N)=O)NC(C)=O)[C@@H](C)CC)[C@@H](C)O)[C@@H](C)CC)[C@@H](C)CC)C(=O)NCC(=O)N[C@@H](CC(N)=O)C(=O)N[C@@H](CO)C(=O)N[C@H](C(=O)N[C@H](C(=O)N[C@@H](Cc1ccc(O)cc1)C(=O)N[C@@H](CC(=O)O)C(N)=O)[C@@H](C)CC)C(C)C [RIPR_019] (Ac-NEIFHTIIYLKKKIGNSVIYD-NH2) | 3490

These compounds were tested against T1, HLA-DRB1*0401 (Homo sapiens, UniProt P01903+P01911, A100K/A169T/F76Y/I96L/K127E/L162R/M171V/N62H/P40V/Q125Y/R42H/S133A/S149N/S66Y/V115G/V209L/W38E) (assay: biochemical). Details: binding inhibition assay; NB = non-binder (no dose-dependent inhibition); read-out: DRB1*0401 IC50.
T1 construct: purchased
Format: binding
Method in brief: as §1

SMILES | IC50 [nM]
CC[C@H](C)[C@H](NC(=O)[C@H](CCCCN)NC(=O)[C@H](CCCCN)NC(=O)[C@H](CCCCN)NC(=O)[C@H](CC(C)C)NC(=O)[C@H](Cc1ccc(O)cc1)NC(=O)[C@@H](NC(=O)[C@@H](NC(=O)[C@@H](NC(=O)[C@H](Cc1c[nH]cn1)NC(=O)[C@H](Cc1ccccc1)NC(=O)[C@@H](NC(=O)[C@H](CCC(=O)O)NC(=O)[C@H](CC(N)=O)NC(C)=O)[C@@H](C)CC)[C@@H](C)O)[C@@H](C)CC)[C@@H](C)CC)C(=O)NCC(=O)N[C@@H](CC(N)=O)C(=O)N[C@@H](CO)C(=O)N[C@H](C(=O)N[C@H](C(=O)N[C@@H](Cc1ccc(O)cc1)C(=O)N[C@@H](CC(=O)O)C(N)=O)[C@@H](C)CC)C(C)C [RIPR_019] (Ac-NEIFHTIIYLKKKIGNSVIYD-NH2) | 3030

The compounds below were run against T2, HLA-DRB1*1501 (Homo sapiens, UniProt P01903+P01911) (assay: biochemical). Details: binding inhibition assay; NB = non-binder (no dose-dependent inhibition); read-out: DRB1*1501 IC50.
T2 construct: purchased
Format: binding
Method in brief: as §1

SMILES | IC50 [nM]
CC[C@H](C)[C@H](NC(=O)[C@H](CCCCN)NC(=O)[C@H](CCCCN)NC(=O)[C@H](CCCCN)NC(=O)[C@H](CC(C)C)NC(=O)[C@H](Cc1ccc(O)cc1)NC(=O)[C@@H](NC(=O)[C@@H](NC(=O)[C@@H](NC(=O)[C@H](Cc1c[nH]cn1)NC(=O)[C@H](Cc1ccccc1)NC(=O)[C@@H](NC(=O)[C@H](CCC(=O)O)NC(=O)[C@H](CC(N)=O)NC(C)=O)[C@@H](C)CC)[C@@H](C)O)[C@@H](C)CC)[C@@H](C)CC)C(=O)NCC(=O)N[C@@H](CC(N)=O)C(=O)N[C@@H](CO)C(=O)N[C@H](C(=O)N[C@H](C(=O)N[C@@H](Cc1ccc(O)cc1)C(=O)N[C@@H](CC(=O)O)C(N)=O)[C@@H](C)CC)C(C)C [RIPR_019] (Ac-NEIFHTIIYLKKKIGNSVIYD-NH2) | 898

These compounds were tested against HLA-DRB1*0801 (Homo sapiens, UniProt P01903+P01911, A100R/A103L/A169T/D86S/F76Y/H45Y/I96F/K41T/L162R/M171V/P40S/Q125H/Q178H/Q39Y/Q99D/R218S/R42G/S66Y/V115G/W38E) (assay: biochemical). Details: binding inhibition assay; NB = non-binder (no dose-dependent inhibition); read-out: DRB1*0801 IC50.
Format: binding
Method in brief: as §1

SMILES | IC50 [nM]
CC[C@H](C)[C@H](NC(=O)[C@H](CCCCN)NC(=O)[C@H](CCCCN)NC(=O)[C@H](CCCCN)NC(=O)[C@H](CC(C)C)NC(=O)[C@H](Cc1ccc(O)cc1)NC(=O)[C@@H](NC(=O)[C@@H](NC(=O)[C@@H](NC(=O)[C@H](Cc1c[nH]cn1)NC(=O)[C@H](Cc1ccccc1)NC(=O)[C@@H](NC(=O)[C@H](CCC(=O)O)NC(=O)[C@H](CC(N)=O)NC(C)=O)[C@@H](C)CC)[C@@H](C)O)[C@@H](C)CC)[C@@H](C)CC)C(=O)NCC(=O)N[C@@H](CC(N)=O)C(=O)N[C@@H](CO)C(=O)N[C@H](C(=O)N[C@H](C(=O)N[C@@H](Cc1ccc(O)cc1)C(=O)N[C@@H](CC(=O)O)C(N)=O)[C@@H](C)CC)C(C)C [RIPR_019] (Ac-NEIFHTIIYLKKKIGNSVIYD-NH2) | 1350

The compounds below were run against HLA-DRB1*1101 (Homo sapiens, UniProt P01903+P01911, A100R/A169T/A87E/I96F/K41T/L162R/M171V/P40S/Q125H/Q178H/Q39Y/Q99D/R42S/S66Y/T262R/V115G/W38E) (assay: biochemical). Details: binding inhibition assay; NB = non-binder (no dose-dependent inhibition); read-out: DRB1*1101 IC50.
Format: binding
Method in brief: as §1

SMILES | IC50 [nM]
CC[C@H](C)[C@H](NC(=O)[C@H](CCCCN)NC(=O)[C@H](CCCCN)NC(=O)[C@H](CCCCN)NC(=O)[C@H](CC(C)C)NC(=O)[C@H](Cc1ccc(O)cc1)NC(=O)[C@@H](NC(=O)[C@@H](NC(=O)[C@@H](NC(=O)[C@H](Cc1c[nH]cn1)NC(=O)[C@H](Cc1ccccc1)NC(=O)[C@@H](NC(=O)[C@H](CCC(=O)O)NC(=O)[C@H](CC(N)=O)NC(C)=O)[C@@H](C)CC)[C@@H](C)O)[C@@H](C)CC)[C@@H](C)CC)C(=O)NCC(=O)N[C@@H](CC(N)=O)C(=O)N[C@@H](CO)C(=O)N[C@H](C(=O)N[C@H](C(=O)N[C@@H](Cc1ccc(O)cc1)C(=O)N[C@@H](CC(=O)O)C(N)=O)[C@@H](C)CC)C(C)C [RIPR_019] (Ac-NEIFHTIIYLKKKIGNSVIYD-NH2) | 66

The compounds below were run against T3, HLA-DRB1*0101 (Homo sapiens, UniProt P01903+P01911, A100R/D57E/F55L/F60I/F76Y/I96L/L162R/M171V/P40L/Q125E/R42F/V115G/Y59C) (assay: biochemical). Details: binding inhibition assay; NB = non-binder (no dose-dependent inhibition); read-out: DRB1*0101 IC50.
T3 construct: purchased
Format: binding
Method in brief: as §1

SMILES | IC50 [nM]
CC[C@H](C)[C@H](NC(=O)[C@H](CCCCN)NC(=O)[C@H](CCCCN)NC(=O)[C@H](CCCCN)NC(=O)[C@H](CC(C)C)NC(=O)[C@H](Cc1ccc(O)cc1)NC(=O)[C@@H](NC(=O)[C@@H](NC(=O)[C@@H](NC(=O)[C@H](Cc1c[nH]cn1)NC(=O)[C@H](Cc1ccccc1)NC(=O)[C@@H](NC(=O)[C@H](CCC(=O)O)NC(=O)[C@H](CC(N)=O)NC(C)=O)[C@@H](C)CC)[C@@H](C)O)[C@@H](C)CC)[C@@H](C)CC)C(=O)NCC(=O)N[C@@H](CC(N)=O)C(=O)N[C@@H](CO)C(=O)N[C@H](C(=O)N[C@H](C(=O)N[C@@H](Cc1ccc(O)cc1)C(=O)N[C@@H](CC(=O)O)C(N)=O)[C@@H](C)CC)C(C)C [RIPR_019] (Ac-NEIFHTIIYLKKKIGNSVIYD-NH2) | 346
